Experimental data: patent US8846947B2, “Benzimidazoles and related analogs as sirtuin modulators” (GlaxoSmithKline LLC, priority 2008, dated 2014)
Counter-ions that a name gives are not always drawn. Like-named read-outs stand apart in the source and are kept apart here.

Target: T1, SIRT1 (Homo sapiens, UniProt Q96EB6)
T1 sequence (Q96EB6 1-747): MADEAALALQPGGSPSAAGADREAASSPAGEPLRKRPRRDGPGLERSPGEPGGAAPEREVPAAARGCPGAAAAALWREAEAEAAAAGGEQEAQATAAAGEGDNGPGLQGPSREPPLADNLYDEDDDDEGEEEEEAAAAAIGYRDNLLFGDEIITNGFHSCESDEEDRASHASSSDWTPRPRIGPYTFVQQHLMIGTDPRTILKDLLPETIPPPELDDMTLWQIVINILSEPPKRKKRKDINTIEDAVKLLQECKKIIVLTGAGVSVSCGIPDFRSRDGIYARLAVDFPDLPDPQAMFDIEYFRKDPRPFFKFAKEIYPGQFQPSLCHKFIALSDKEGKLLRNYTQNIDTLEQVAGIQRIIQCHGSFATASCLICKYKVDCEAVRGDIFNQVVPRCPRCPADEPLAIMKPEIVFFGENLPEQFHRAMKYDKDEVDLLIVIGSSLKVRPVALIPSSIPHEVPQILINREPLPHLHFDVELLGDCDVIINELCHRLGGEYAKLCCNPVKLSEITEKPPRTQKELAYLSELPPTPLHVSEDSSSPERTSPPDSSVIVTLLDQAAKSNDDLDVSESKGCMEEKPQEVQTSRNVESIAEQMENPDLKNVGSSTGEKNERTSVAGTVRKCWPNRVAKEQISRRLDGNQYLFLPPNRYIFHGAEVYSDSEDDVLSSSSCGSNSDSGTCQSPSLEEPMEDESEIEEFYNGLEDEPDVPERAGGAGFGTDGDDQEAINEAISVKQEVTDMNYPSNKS
Assay: Mass spectrometry based SIRT1 deacetylase activation assay (acetylated p53-derived peptide substrate)
Assay type: biochemical

[1] = 0.5 μM peptide substrate, 120 μM βNAD+, 10 nM SIRT1, 25 minutes at 25° C.
[2] = 0.5 μM peptide substrate, 120 μM βNAD+, 10 nM SIRT1, 25 min at 25° C.
[3] = 0.5 μM peptide substrate, 120 μM βNAD+, 10 nM SIRT1, 25 min at 25° C., read-out: EC1.5

Row | EC1.5 [1] | Fold Act. (percent maximum fold activation) [1] | EC1.5 | Fold Act. (percent maximum fold activation) | Structure (SMILES) | further results
1 | A (EC1.5<1.0 uM) | A (Fold activation >200%) | – | – | CC1(C)CN(c2ccc(-c3nc4c(C(=O)Nc5nccs5)cccc4[nH]3)c(C(F)(F)F)c2)CCO1 [Compound 706] | –
2 | A (EC1.5<1.0 uM) | A (Fold activation >200%) | – | – | O=C(Nc1cccc(OC[C@@H](O)CO)c1)c1cccc2[nH]c(-c3ccccc3C(F)(F)F)nc12 [Compound 725, (S)-N-(3-(2,3-dihydroxypropoxy)phenyl)-2-(2-(trifluoromethyl)phenyl)-1H-benzo[d]imidazole-4-carboxamide] | –
3 | A (EC1.5<1.0 uM) | A (Fold activation >200%) | – | – | O=C(Nc1cccc(OC[C@@H](O)CO)c1)c1cncc2[nH]c(-c3ccccc3C(F)(F)F)nc12 [Compound 747] | –
4 | A (EC1.5<1.0 uM) | A (Fold activation >200%) | – | – | Cc1cnc(NC(=O)c2cncc3[nH]c(-c4cc(F)ccc4C(F)(F)F)nc23)s1 [Compound 657] | –
5 | A (EC1.5<1.0 uM) | A (Fold activation >200%) | – | – | Cc1nc(C)c(-c2nc3c(C(=O)Nc4cccc(CN5CCOCC5)n4)cccc3[nH]2)s1 [Compound 847] | –
6 | A (EC1.5<1.0 uM) | A (Fold activation >200%) | – | – | O=C(Nc1cccc(OC[C@H](O)CO)c1)c1cncc2[nH]c(-c3ccc(Cl)cc3C(F)(F)F)nc12 [Compound 739] | –
7 | A (EC1.5<1.0 uM) | A (Fold activation >200%) | – | – | O=C(Nc1nc(CN2CCOCC2)cs1)c1cccc2[nH]c(-c3cc(F)ccc3C(F)(F)F)nc12 [Compound 701] | –
8 | A (EC1.5<1.0 uM) | A (Fold activation >200%) | – | – | O=C(Nc1cccc(OC[C@H](O)CO)c1)c1cc(F)cc2[nH]c(-c3ccccc3C(F)F)nc12 [Compound 811, (R)-2-(2-(difluoromethyl)phenyl)-N-(3-(2,3-dihydroxypropoxy)phenyl)-6-fluoro-1H-benzo[d]imidazole-4-carboxamide] | –
9 | B (EC1.5 1-25 uM) | A (Fold activation >200%) | – | – | CC(C)(C)NCCOc1ccccc1-c1nc2c(C(=O)Nc3ccccn3)cccc2[nH]1 [Compound 616] | –
10 | A (EC1.5<1.0 uM) | A (Fold activation >200%) | – | – | O=C(Nc1nccs1)c1cccc2[nH]c(-c3ccc(OCCN4CCOCC4)cc3C(F)F)nc12 [Compound 722] | –
11 | A (EC1.5<1.0 uM) | A (Fold activation >200%) | – | – | O=C(Nc1ccccn1)c1cc(N2CCOCC2)cc2[nH]c(-c3ccc(F)cc3C(F)F)nc12 [Compound 750] | –
12 | C (EC1.5 >25 uM) | B (Fold Activation <200%) | – | – | O=C(Nc1ccccn1)c1cccc2[nH]c(-c3ccccc3OCCN3CCCC(F)(F)C3)nc12 [Compound 612] | –
13 | A (EC1.5<1.0 uM) | A (Fold activation >200%) | – | – | Cc1cnc(NC(=O)c2cccc3[nH]c(-c4ccc(OC[C@@H](O)CO)cc4C(F)(F)F)nc23)s1 [Compound 746] | –
14 | A (EC1.5<1.0 uM) | A (Fold activation >200%) | – | – | O=C(Nc1ccccn1)c1cc(N2CCOCC2)cc2[nH]c(-c3ccc(Cl)cc3C(F)(F)F)nc12 [Compound 641] | –
15 | A (EC1.5<1.0 uM) | A (Fold activation >200%) | – | – | O=C(Nc1ccccn1)c1cccc2[nH]c(-c3ccc(N4CC[C@H](F)C4)cc3C(F)(F)F)nc12 [Compound 607] | –
16 | A (EC1.5<1.0 uM) | A (Fold activation >200%) | – | – | O=C(Nc1ccccc1)c1cccc2[nH]c(-c3cc(F)ccc3C(F)(F)F)nc12 [Compound 756] | –
17 | A (EC1.5<1.0 uM) | A (Fold activation >200%) | – | – | O=C(Nc1nc(CN2CCOCC2)cs1)c1cccc2[nH]c(-c3ccc(F)cc3C(F)(F)F)nc12 [Compound 681, 2-(4-fluoro-2-(trifluoromethyl)phenyl)-N-(4-(morpholinomethyl)thiazol-2-yl)-1H-benzo[d]imidazole-4-carboxamide] | –

More lines, now with the values behind:

Row | Structure (SMILES) | EC1.5 [1] | Fold Act. (percent maximum fold activation) [1] | EC1.5 | Fold Act. (percent maximum fold activation) | further results
18 | O=C(Nc1nccs1)c1cccc2[nH]c(-c3cc(F)cc(F)c3OCCN3CCOCC3)nc12 [Compound 585] | – | – | – | – | Fold Act. (percent maximum fold activation) [2]: B (Fold Activation <200%); EC1.5 [3]: 1000 to 25000 nM
19 | O=C(Nc1cccnn1)c1cccc2[nH]c(-c3ccnn3-c3ccccc3)nc12 [Compound 467] | – | – | – | – | Fold Act. (percent maximum fold activation) [2]: A (Fold activation >200%); EC1.5 [3]: 1000 to 25000 nM
20 | O=C(Nc1ccc[n+]([O-])c1)c1cccc2[nH]c(-c3ccc(Cl)cc3C(F)(F)F)nc12 [Compound 331] | – | – | A (EC1.5<1.0 uM) | A (Fold activation >200%) | –
21 | O=C(Nc1nccs1)c1cccc2[nH]c(-c3cccc(Cl)c3F)nc12 [Compound 257] | – | – | B (EC1.5 1-25 uM) | A (Fold activation >200%) | –
22 | O=C(Nc1cccc2[nH]c(-c3ccnn3-c3ccccc3)nc12)c1cscn1 [Compound 392] | – | – | B (EC1.5 1-25 uM) | A (Fold activation >200%) | –
23 | O=C(Nc1nccs1)c1cccc2[nH]c(-c3ccc(N4CCNCC4)nc3)nc12 [Compound 251, 2-(6-(piperazin-1-yl)pyridin-3-yl)-N-(thiazol-2-yl)-1H-benzo[d]imidazole-4-carboxamide hydrochloride] | – | – | A (EC1.5<1.0 uM) | A (Fold activation >200%) | –
24 | O=C(Nc1nccs1)c1cccc2[nH]c(-c3ccnc(N4CCOCC4)c3)nc12 [Compound 269] | – | – | A (EC1.5<1.0 uM) | A (Fold activation >200%) | –
25 | O=C(Nc1nccs1)c1cccc2[nH]c(-c3ccc4ccccc4c3)nc12 [Compound 228] | – | – | B (EC1.5 1-25 uM) | A (Fold activation >200%) | –
26 | CC(C)(C)c1nnc(NC(=O)c2cccc3[nH]c(-c4cccc(C(F)(F)F)c4)nc23)s1 [Compound 240] | – | – | C (EC1.5 >25 uM) | B (Fold Activation <200%) | –
27 | O=C(Nc1cccnc1)c1cccc2[nH]c(-c3ccc(N4CCOCC4)cc3C(F)(F)F)nc12 [Compound 430, 2-(4-morpholino-2-(trifluoromethyl)phenyl)-N-(pyridin-3-yl)-1H-benzo[d]imidazole-4-carboxamide] | – | – | – | – | Fold Act. (percent maximum fold activation) [2]: A (Fold activation >200%); EC1.5 [3]: < 1000 nM
28 | O=C(Nc1ccncc1)c1cccc2[nH]c(-c3cc(F)ccc3C(F)(F)F)nc12 [Compound 316] | – | – | A (EC1.5<1.0 uM) | A (Fold activation >200%) | –
29 | O=C(Nc1nccs1)c1cccc2[nH]c(-c3c(F)cccc3F)nc12 [Compound 265] | – | – | B (EC1.5 1-25 uM) | A (Fold activation >200%) | –
30 | O=C(NC1CCOC1=O)c1cccc2[nH]c(-c3ccccc3C(F)(F)F)nc12 (centres unmarked) [Compound 353] | – | – | C (EC1.5 >25 uM) | B (Fold Activation <200%) | –
31 | O=C(Nc1ccccn1)c1cccc2[nH]c(-c3ccc(N4CCOCC4)cc3C(F)F)nc12 [Compound 553] | – | – | – | – | Fold Act. (percent maximum fold activation) [2]: A (Fold activation >200%); EC1.5 [3]: < 1000 nM
32 | O=C(Nc1ccccn1)c1cccc2[nH]c(-c3ccc(OC4CCNCC4)cc3)nc12 [Compound 535] | – | – | – | – | Fold Act. (percent maximum fold activation) [2]: A (Fold activation >200%); EC1.5 [3]: < 1000 nM
33 | O=C(Nc1nccs1)c1cccc2[nH]c(-c3cccnc3Cl)nc12 [Compound 245] | – | – | B (EC1.5 1-25 uM) | A (Fold activation >200%) | –
34 | O=C(Nc1nccs1)c1cccc2[nH]c(-c3cc(N4CCOCC4)ccc3C(F)(F)F)nc12 [Compound 448] | – | – | – | – | Fold Act. (percent maximum fold activation) [2]: A (Fold activation >200%); EC1.5 [3]: < 1000 nM
35 | CS(=O)(=O)c1ccccc1-c1nc2c(C(=O)Nc3nccs3)cccc2[nH]1 [Compound 517] | – | – | – | – | Fold Act. (percent maximum fold activation) [2]: A (Fold activation >200%); EC1.5 [3]: 1000 to 25000 nM
36 | Cc1nc(C)c(-c2nc3c(C(=O)Nc4cccnc4)cccc3[nH]2)s1 [Compound 319] | – | – | A (EC1.5<1.0 uM) | A (Fold activation >200%) | –
37 | CS(=O)(=O)c1cccc(-c2nc3c(C(=O)Nc4cccnc4)cccc3[nH]2)c1 [Compound 404] | – | – | – | – | Fold Act. (percent maximum fold activation) [2]: A (Fold activation >200%); EC1.5 [3]: < 1000 nM
38 | O=C(Nc1ccccn1)c1cccc2[nH]c(-c3ccccc3OC3CCNC3)nc12 (centres unmarked) [Compound 460] | – | – | – | – | Fold Act. (percent maximum fold activation) [2]: A (Fold activation >200%); EC1.5 [3]: 1000 to 25000 nM
39 | O=C(Nc1cccc(OCC(O)CO)c1)c1cccc2[nH]c(-c3cc(F)ccc3C(F)(F)F)nc12 (centres unmarked) [Compound 480] | – | – | – | – | Fold Act. (percent maximum fold activation) [2]: A (Fold activation >200%); EC1.5 [3]: < 1000 nM
40 | O=C(Nc1ccccn1)c1cccc2[nH]c(-c3cccc(OC4CCNC4)c3)nc12 (centres unmarked) [Compound 463] | – | – | – | – | Fold Act. (percent maximum fold activation) [2]: A (Fold activation >200%); EC1.5 [3]: 1000 to 25000 nM
